Experimental data: the CATMoS acute toxicity set (Mansouri et al. 2021)
Values joined by “and” are separate entries in the source; they are usually repeats but may differ in a detail not shown here. Equal values may be shown once.

Experiment: rat acute oral toxicity
Conditions: in vivo
Source text: […]The data set underlying the modeling effort for this project was initially compiled by NICEATM and U.S. EPA’s CCTE. Briefly, LD50 data were collected from rat acute oral systemic toxicity tests, including limit tests, ranges/confidence intervals, and discrete LD50 values. The full data set included 21,200 LD50 entries for 15,688 substances. […] Data were reviewed to ensure that LD50 values with obvious errors in the extracted data such as unit conversion errors (e.g., comma and decimal separator misplacements) were either fixed or removed. After this review, 16,209 LD50 values remained. Many of the chemicals represented had multiple LD50 entries, requiring that a single representative value per Chemical Abstracts Service Registry Number (CASRN) identifier be defined to facilitate modeling efforts. Based on ATWG feedback and to define the representative LD50 as a protective value while accounting for the distribution across multiple LD50s, the median of the lowest quartile was computed using only discrete LD50 values (omitting limit test data and range and confidence interval data). A detailed summary of the data compilation is available online on the NICEATM webpage dedicated to the collaborative modeling project (NTP 2020).
[…][…] For categorical designations, limit test and range/confidence interval LD50 data were integrated wherever possible. As such, the number of chemicals with end point values/calls varies across the modeling end points (Table 3) based on whether chemicals had representative LD50 values and/or other data. If a chemical had both, the representative value was used to determine categorical calls rather than limit test data. Some data were useable only for certain end points and categories depending on the thresholds. For example, ranges that spanned multiple hazard categories were considered only for the binary (very toxic/nontoxic) end points and omitted from rendering a determination for hazard category assignment.
[…]The final data set comprising 11,992 chemicals was split into training and evaluation sets […], respectively. This process was performed semirandomly by ordering chemicals based on the five end points (categorical and continuous LD50 values) and partitioning every fourth record into the evaluation set accordingly. This approach was taken to ensure an equivalent distribution of the LD50 values and the different hazard categories between the training and the evaluation sets without supervised sampling of the chemicals based on structures (Figure 1A). The sources of the chemical structures were also kept equivalent between the two sets, with chemical structures obtained from DSSTox, being the highest quality, representing over 75% of each set (Figure 1B).

Row | SMILES | LD50
1 | O=[N+]([O-])c1ccc(O)c([N+](=O)[O-])c1 | 30 mg/kg
2 | OC[P+](CO)(CO)CO | 161 mg/kg
3 | NC(=O)c1c(F)cccc1F | 1080 mg/kg
4 | C#CCO | 20 mg/kg
5 | CC(C)CCCCCOC(=O)c1ccccc1C(=O)OCCCCCC(C)C | 22000 mg/kg
6 | CCC1(c2ccccc2)C(=O)NC(=O)NC1=O | 162 mg/kg
7 | O=c1sc2ccccc2c(O)c1C1CC(c2ccc(-c3ccc(Br)cc3)cc2)Cc2ccccc21 (centres undefined) | 0.55 mg/kg
8 | Oc1ccccc1-c1ccccc1 | 718 mg/kg
9 | Cc1cc(Cl)ccc1OCC(=O)O | 700 mg/kg
10 | Nc1ccc(Cl)c(Cl)c1 | 530 mg/kg
11 | CCCCCCCCCCCCN(CCCN)CCCN | 252 mg/kg
12 | CN(C)CCCN1c2ccccc2Sc2ccc(Cl)cc21 | 142 mg/kg and 143 mg/kg
13 | c1ccc(CNc2[nH]cnc3ncnc2-3)cc1 | 1300 mg/kg
14 | CCCCCCCCCCCC[N+](C)(C)[O-] | 1060 mg/kg
15 | N#CCC#N | 14 mg/kg
16 | NCCCOCCOCCOCCCN | 2850 mg/kg
17 | CCC(=O)O | 2600 mg/kg
18 | CC1=C(C)S(=O)(=O)CCS1(=O)=O | 500 mg/kg
19 | NCCNCCN | 1080 mg/kg
20 | CC(C)(C)CC(C)(C)c1ccc(O)cc1 | 4040 mg/kg
21 | Clc1cc2c(cc1Cl)Oc1cc(Cl)c(Cl)cc1O2 | 0.02 mg/kg
22 | CN(C)C(CSC(N)=O)CSC(N)=O | 340 mg/kg
23 | ClC=CCCl | 110 mg/kg
24 | CC(C)(C)N | 44 mg/kg

Row | SMILES | LD50
25 | O=C(O)c1c(Cl)ccc(Cl)c1Cl | 650 mg/kg
26 | CC1(C)OC(c2ccco2)CN1C(=O)C(Cl)Cl (centres undefined) | 521 mg/kg
27 | O=C1C2(Cl)C3(Cl)C4(Cl)C(Cl)(Cl)C5(Cl)C3(Cl)C1(Cl)C5(Cl)C24Cl (centres undefined) | 91.3 mg/kg
28 | ClC(Cl)Br | 916 mg/kg
29 | CCNS(=O)(=O)C(F)(F)C(F)(F)C(F)(F)C(F)(F)C(F)(F)C(F)(F)C(F)(F)C(F)(F)F | 507 mg/kg
30 | O=c1[nH]c(=O)n(Cl)c(=O)n1Cl | 1170 mg/kg and 1420 mg/kg
31 | CCCN(CCC)C(=O)SCC | 916 mg/kg
32 | CC/C=C\C#N | 198 mg/kg
33 | CC(O)CO (centres undefined) | 20000 mg/kg
34 | C/C=C(/C)C(=O)O[C@H]1CCN2CC=C(COC(=O)[C@](O)([C@H](C)OC)C(C)(C)O)[C@H]12 | 110 mg/kg
35 | CC(=O)OC(C)C | 3000 mg/kg
36 | CCOP(=O)(OCC)OP(=O)(OCC)OCC | 0.5 mg/kg
37 | CC(C)N | 111 mg/kg
38 | CCOP(=O)(O)C(N)=O | 2080 mg/kg
39 | CCCCOCCOCCOC(OCCOCCOCCCC)c1ccc2c(c1)OCO2 | 2940 mg/kg
40 | CCNc1ccccc1 | 334 mg/kg
41 | OCCOCCOc1ccccc1 | 2140 mg/kg
42 | CCCCN | 366 mg/kg
43 | O=C(O)C1(C(=O)Nc2ccc(Cl)cc2Cl)CC1 | 208 mg/kg
44 | NC(=O)/C(=C\c1ccc([N+](=O)[O-])o1)c1ccco1 | 340 mg/kg
45 | Nc1c(Cl)c(Cl)nc(C(=O)O)c1Cl | 686 mg/kg
46 | CC(O)COc1ccccc1 (centres undefined) | 2830 mg/kg
47 | CC1OC(C)OC(C)O1 (centres undefined) | 1530 mg/kg
48 | CC(CC=O)CC(C)(C)C (centres undefined) | 3240 mg/kg

Row | SMILES | LD50
49 | O=C(O)c1cc(Oc2ccc(C(F)(F)F)cc2Cl)ccc1[N+](=O)[O-] | 1300 mg/kg
50 | OCC1CO1 (centres undefined) | 420 mg/kg
51 | CNC(=S)S | 615 mg/kg
52 | CCCN(CCC)CCC | 72.5 mg/kg
53 | ClC(Cl)=C(Cl)Cl | 2630 mg/kg
54 | CCCCCCCCCCC(N)CO (centres undefined) | 300 mg/kg
55 | N#Cc1ccccc1 | 700 mg/kg
56 | NC(=O)c1cccnc1 | 3500 mg/kg
57 | CCO | 7230 mg/kg
58 | OCCc1ccccc1 | 1600 mg/kg
59 | Cc1cccc(Nc2cc(Cl)nc(SCC(=O)O)n2)c1C | 1050 mg/kg
60 | CC(C)(C)C(O)C(Oc1ccc(Cl)cc1)n1cncn1 (centres undefined) | 689 mg/kg
61 | CC(CCl)OC(C)CCl (centres undefined) | 240 mg/kg
62 | OCC(F)(F)F | 153 mg/kg
63 | O=S(=O)(O)c1ccc(Nc2nc(Nc3ccc(/C=C/c4ccc(Nc5nc(Nc6ccc(S(=O)(=O)O)cc6)nc(N(CCO)CCO)n5)cc4S(=O)(=O)O)c(S(=O)(=O)O)c3)nc(N(CCO)CCO)n2)cc1 | 5300 mg/kg
64 | Cc1cccc(N)c1 | 450 mg/kg
65 | CC1(C)C(C(=O)OC(C#N)c2cccc(Oc3ccccc3)c2)C1(C)C (centres undefined) | 66.7 mg/kg
66 | CC(C)O | 4710 mg/kg
67 | CCC(C)NC1CCC(CC2CCC(NC(C)CC)CC2)CC1 (centres undefined) | 266 mg/kg
68 | CC(=O)CC(=O)Nc1ccccc1C | 1020 mg/kg
69 | CS(=O)(=O)O | 200 mg/kg
70 | CCOC(=O)C(Cl)C(C)=O (centres undefined) | 233 mg/kg
71 | Oc1ccc(Cl)cc1Cl | 47 mg/kg
72 | O=C(OCC1CCC2OC2C1)C1CCC2OC2C1 (centres undefined) | 4490 mg/kg

Row | SMILES | LD50
73 | CCn1cc(C(=O)O)c(=O)c2ccc(C)nc21 | 1160 mg/kg
74 | CC1=C(C(=O)Nc2ccccc2)SCCO1 | 430 mg/kg
75 | N=C(Nc1ccccc1)Nc1ccccc1 | 107 mg/kg
76 | Cc1ccc(C)c(OCCCC(C)(C)C(=O)O)c1 | 479 mg/kg
77 | CCNc1nc(Cl)nc(NC(C)C)n1 | 1870 mg/kg
78 | CC(C)COC(=O)c1ccccc1C(=O)OCC(C)C | 10400 mg/kg
79 | N#Cc1c(Cl)c(Cl)c(Cl)c(C#N)c1Cl | 242 mg/kg
80 | C=CCOC(C)=O | 130 mg/kg
81 | O=C1NC(=O)C2C3C(C(O)(c4ccccc4)c4ccccn4)=CC(C3=C(c3ccccc3)c3ccccn3)C12 (centres undefined) | 3.8 mg/kg
82 | C=CCN=C=S | 112 mg/kg
83 | CN(C)C=O | 3000 mg/kg
84 | CCCN(CC1CC1)c1c([N+](=O)[O-])cc(C(F)(F)F)cc1[N+](=O)[O-] | 1810 mg/kg
85 | CC(O)CNCC(C)O (centres undefined) | 4760 mg/kg
86 | CC1(C)[C@H](/C=C(\Cl)C(F)(F)F)[C@@H]1C(=O)O[C@H](C#N)c1cccc(Oc2ccccc2)c1 | 114 mg/kg
87 | N#C[N-2] | 158 mg/kg
88 | CCOC(=O)C1(c2ccccc2)CCN(C)CC1 | 162 mg/kg
89 | CC(=O)C1C(=O)C=C(C)OC1=O (centres undefined) | 500 mg/kg
90 | CC(C)c1cccc(C(C)C)c1N | 3200 mg/kg
91 | COCC(C)OC(C)=O (centres undefined) | 5160 mg/kg
92 | COc1nc(C)nc(NC(=O)NS(=O)(=O)c2ccccc2Cl)n1 | 5540 mg/kg
93 | O=C(C=Cc1ccccc1)OCc1ccccc1 | 5380 mg/kg
94 | ClC=C(Cl)Cl | 4920 mg/kg
95 | CCOP(=S)(OCC)Oc1cc(Cl)c(SC)cc1Cl | 9.1 mg/kg
96 | CCCCCCCCC=CCCCCCCCCN(CCO)CCO | 1260 mg/kg

Row | SMILES | LD50
97 | OCCOCCOCCOCCO | 32700 mg/kg
98 | CCCCC=O | 4580 mg/kg
99 | OCCCl | 58 mg/kg
100 | Cc1ccccc1C | 3520 mg/kg
101 | CCCCC(CC)CO (centres undefined) | 2050 mg/kg
102 | CCCCOP(=O)(OCCCC)Oc1ccccc1 | 2140 mg/kg
103 | Nc1ccc(O)c([N+](=O)[O-])c1 | 1470 mg/kg
104 | COCCOCCOCCOCCOC | 3850 mg/kg
105 | CC(C)CCCCCCCCCCOP(OCCCCCCCCCCC(C)C)OCCCCCCCCCCC(C)C | 12000 mg/kg
106 | COP(=S)(OC)Oc1ccc(C#N)cc1 | 580 mg/kg
107 | CCOP(=O)(OCC)OC(=CCl)c1ccc(Cl)cc1Cl | 9.66 mg/kg
108 | O=C(O)c1ccccc1-c1c2cc(I)c(=O)c(I)c-2oc2c(I)c(O)c(I)cc12 | 1840 mg/kg
109 | O=C=Nc1ccc(Cl)c(Cl)c1 | 91 mg/kg
110 | CCOc1ccc(NC(N)=O)cc1 | 1900 mg/kg
111 | CC(=O)OCCOC(C)=O | 6850 mg/kg
112 | CCOC=O | 1850 mg/kg
113 | COP(=S)(OC)SCC(=O)N(C)C=O | 218 mg/kg
114 | NS(=O)(=O)Cc1noc2ccccc12 | 1990 mg/kg
115 | CCNc1nc(Cl)nc(NC(C)(C)C)n1 | 1500 mg/kg
116 | CCCCCCC=O | 3200 mg/kg
117 | ClC1=C(Cl)[C@]2(Cl)[C@@H]3[C@@H]4C[C@@H]([C@H]5O[C@@H]45)[C@@H]3[C@@]1(Cl)C2(Cl)Cl (single isomer, unassigned) | 24 mg/kg
118 | Cc1nc(N(C)C)nc(OC(=O)N(C)C)c1C | 100 mg/kg
119 | Clc1ccccc1 | 1110 mg/kg
120 | CCCC(C)C1(CC)C(=O)N=C(O)NC1=O (centres undefined) | 52 mg/kg and 118 mg/kg

Row | SMILES | LD50
121 | C1=CC2CCC1C2 | 9580 mg/kg
122 | CC(C)OC(=O)Nc1ccccc1 | 1000 mg/kg
123 | O=C(O)c1cccnc1 | 4500 mg/kg
124 | CCCCCCCC(=O)OCC(COC(=O)CCCCCCC)OC(=O)CCCCCCC | 33300 mg/kg
125 | CC(C)C1OCC=CCO1 | 1000 mg/kg
126 | CCc1cccc(C)c1N(C(=O)CCl)C(C)COC (centres undefined) | 2200 mg/kg
127 | CC[C@H]1OC(=O)C[C@@H](O)[C@H](C)[C@@H](O[C@@H]2O[C@H](C)[C@@H](O)[C@H](N(C)C)[C@H]2O)[C@@H](CCN2C[C@H](C)C[C@H](C)C2)C[C@@H](C)C(=O)C=CC(C)=C[C@@H]1CO[C@@H]1O[C@H](C)[C@@H](O)[C@@H](OC)[C@H]1OC | 800 mg/kg
128 | O=C(O)c1ccccc1O | 930 mg/kg and 891 mg/kg
129 | BrC(Br)Br | 933 mg/kg
130 | CCCCCCC(CO)CCCC (centres undefined) | 13000 mg/kg
131 | C#CC(C)(C)O | 1420 mg/kg
132 | C=CCOC(=O)OCCOCCOC(=O)OCC=C | 350 mg/kg
133 | CCCCC(Oc1ccc([N+](=O)[O-])cc1C=O)C(=O)O (centres undefined) | 500 mg/kg
134 | CC(C)(C)c1cc(C(C)(C)C)c(O)c(C(C)(C)C)c1 | 1610 mg/kg
135 | COc1ccc(O)c(C(C)(C)C)c1 | 2910 mg/kg
136 | CCC[N+](C)(C)CC[N+](C)(C)CCO | 1850 mg/kg
137 | CC=Cc1ccc2c(c1)OCO2 | 1300 mg/kg
138 | CC(C)(O)C#N | 18.6 mg/kg
139 | CCOC(=O)C(C)Oc1ccc(Oc2nc3ccc(Cl)cc3o2)cc1 (centres undefined) | 2360 mg/kg
